Reference: ChEMBL document CHEMBL4673232, “Optimization of a series of potent, selective and orally bioavailable SYK inhibitors” (Bioorg Med Chem Lett, 2020)
≈ marks a conversion by molar mass, not a printed value.

Experiment: Lipophilicity, logD of compound
Format: physicochemical
Settings: octanol/water

Point of comparison: `Cc1nnc(-c2nn(C)c3ccc(Nc4nccc(-c5cc(CN(C)C)n(C)n5)n4)cc23)o1`, logD 2.6. Against it:
- CNC(=O)c1nn(C)c2ccc(Nc3nccc(-n4cc(CN5CC(O)C5)c(C)n4)n3)cc12 — lower, 1.9
- Cc1nnc(-c2nc(C)n3ccc(Nc4nccc(-c5cc(CN(C)C)n(C)n5)n4)cc23)o1 — lower, 2.4
- CNC(=O)c1nn(C)c2ccc(Nc3nccc(-c4cc(CN(C)C)n(C)n4)n3)cc12 — lower, 2.2
- CNC(=O)c1nn(C)c2c(C)cc(Nc3nccc(-n4cc(CN(C)C)cn4)n3)cc12 — lower, 2.3
- COC(=O)c1nn(C)c2c(C)cc(Nc3nccc(-c4cc(CN(C)C)n(C)n4)n3)cc12 — higher, 3.2
- CN(C)Cc1cnn(-c2ccnc(Nc3ccc4c(c3)c(C(=O)N(C)C)nn4C)n2)c1 — lower, 1.7
- CNC(=O)c1ncn2ccc(Nc3nccc(-n4cc(CN(C)C)cn4)n3)cc12 — lower, 1.4
- Cc1nn(-c2ccnc(Nc3ccc4c(c3)c(Cl)c(C)n4C)n2)cc1CN1CC(O)C1 — higher, 3.9
- CNC(=O)c1nn(C)c2ccc(Nc3nccc(-n4cc(CN(C)C)c(OC)n4)n3)cc12 — lower, 2.3
- CNC(=O)c1nc(C)n2ccc(Nc3nccc(-n4cc([C@@H]5C[C@H](O)CN5C)cn4)n3)cc12 — lower, 2
- CNC(=O)c1nn(C)c2ccc(Nc3nccc(-n4cc(CN(C)C)cn4)n3)cc12 — lower, 1.8
- CNC(=O)c1nn(C)c2c(C)cc(Nc3nccc(-c4cc(CN(C)C)n(C)n4)n3)cc12 — the same, 2.6
- CNC(=O)c1nn(C)c2ccc(Nc3nccc(-n4cc(CN(C)C)c(F)n4)n3)cc12 — higher, 2.8

Experiment: Metabolic stability in human liver microsomes assessed as intrinsic clearance
Format: ADME, Microsome
Settings: read-out: CLH

Point of comparison: `CNC(=O)c1nn(C)c2ccc(Nc3nccc(-n4cc(CN5CC(O)C5)c(C)n4)n3)cc12`, microsomal CLint 78 µL/min/mg. Against it:
- Cc1nnc(-c2nc(C)n3ccc(Nc4nccc(-c5cc(CN(C)C)n(C)n5)n4)cc23)o1 — 1.9-fold lower, 40 µL/min/mg
- CNC(=O)c1nn(C)c2ccc(Nc3nccc(-c4cc(CN(C)C)n(C)n4)n3)cc12 — within 1.5-fold, 93 µL/min/mg
- CNC(=O)c1nn(C)c2c(C)cc(Nc3nccc(-n4cc(CN(C)C)cn4)n3)cc12 — 2.4-fold lower, 32 µL/min/mg
- CNC(=O)c1nc(C)n2ccc(Nc3nccc(-n4cc([C@@H]5C[C@@H](F)CN5C)cn4)n3)cc12 — 3.6-fold higher, 278 µL/min/mg
- CN(C)Cc1cnn(-c2ccnc(Nc3ccc4c(c3)c(C(=O)N(C)C)nn4C)n2)c1 — 1.8-fold lower, 43 µL/min/mg
- CNC(=O)c1ncn2ccc(Nc3nccc(-n4cc(CN(C)C)cn4)n3)cc12 — 8.7-fold lower, 9 µL/min/mg
- Cc1nn(-c2ccnc(Nc3ccc4c(c3)c(Cl)c(C)n4C)n2)cc1CN1CC(O)C1 — 1.6-fold lower, 49 µL/min/mg
- CNC(=O)c1nn(C)c2ccc(Nc3nccc(-n4cc(CN(C)C)c(OC)n4)n3)cc12 — within 1.5-fold, 103 µL/min/mg
- CNC(=O)c1nc(C)n2ccc(Nc3nccc(-n4cc([C@@H]5C[C@H](O)CN5C)cn4)n3)cc12 — within 1.5-fold, 110 µL/min/mg
- CNC(=O)c1nn(C)c2ccc(Nc3nccc(-n4cc(CN(C)C)cn4)n3)cc12 — 1.5-fold lower, 52 µL/min/mg
- CNC(=O)c1nn(C)c2c(C)cc(Nc3nccc(-c4cc(CN(C)C)n(C)n4)n3)cc12 — within 1.5-fold, 106 µL/min/mg
- CNC(=O)c1nn(C)c2ccc(Nc3nccc(-n4cc(CN(C)C)c(F)n4)n3)cc12 — within 1.5-fold, 84 µL/min/mg

Experiment: Metabolic stability in rat hepatocyte assessed as intrinsic clearance
Format: ADME, tissue-based
Settings: hepatocytes

Point of comparison: `CNC(=O)c1nc(C)n2ccc(Nc3nccc(-n4cc([C@@H]5C[C@@H](F)CN5C)cn4)n3)cc12`, CLH 31 µL/min. Against it:
- CNC(=O)c1nn(C)c2ccc(Nc3nccc(-n4cc(CN5CC(O)C5)c(C)n4)n3)cc12 — 1.6-fold lower, 19 µL/min
- Cc1nnc(-c2nc(C)n3ccc(Nc4nccc(-c5cc(CN(C)C)n(C)n5)n4)cc23)o1 — 2.6-fold lower, 12 µL/min
- CNC(=O)c1nn(C)c2ccc(Nc3nccc(-c4cc(CN(C)C)n(C)n4)n3)cc12 — 1.6-fold higher, 51 µL/min
- CNC(=O)c1nn(C)c2c(C)cc(Nc3nccc(-n4cc(CN(C)C)cn4)n3)cc12 — 1.6-fold higher, 49 µL/min
- COC(=O)c1nn(C)c2c(C)cc(Nc3nccc(-c4cc(CN(C)C)n(C)n4)n3)cc12 — 6-fold higher, 186 µL/min
- CN(C)Cc1cnn(-c2ccnc(Nc3ccc4c(c3)c(C(=O)N(C)C)nn4C)n2)c1 — within 1.5-fold, 33 µL/min
- CNC(=O)c1ncn2ccc(Nc3nccc(-n4cc(CN(C)C)cn4)n3)cc12 — within 1.5-fold, 34 µL/min
- Cc1nn(-c2ccnc(Nc3ccc4c(c3)c(Cl)c(C)n4C)n2)cc1CN1CC(O)C1 — 2.1-fold higher, 66 µL/min
- CNC(=O)c1nn(C)c2ccc(Nc3nccc(-n4cc(CN(C)C)c(OC)n4)n3)cc12 — within 1.5-fold, 21 µL/min
- CNC(=O)c1nc(C)n2ccc(Nc3nccc(-n4cc([C@@H]5C[C@H](O)CN5C)cn4)n3)cc12 — 1.8-fold lower, 17 µL/min
- CNC(=O)c1nn(C)c2ccc(Nc3nccc(-n4cc(CN(C)C)cn4)n3)cc12 — the same, 31 µL/min
- CNC(=O)c1nn(C)c2c(C)cc(Nc3nccc(-c4cc(CN(C)C)n(C)n4)n3)cc12 — 2.1-fold higher, 64 µL/min
- CNC(=O)c1nn(C)c2ccc(Nc3nccc(-n4cc(CN(C)C)c(F)n4)n3)cc12 — within 1.5-fold, 34 µL/min
- Cc1nnc(-c2nn(C)c3ccc(Nc4nccc(-c5cc(CN(C)C)n(C)n5)n4)cc23)o1 — 2.2-fold lower, 14 µL/min

Experiment: Solubility of compound
Format: physicochemical
Settings: not given

Point of comparison: `Cc1nnc(-c2nc(C)n3ccc(Nc4nccc(-c5cc(CN(C)C)n(C)n5)n4)cc23)o1`, solubility 97 µM (≈ 43.1 µg/mL). Against it:
- CNC(=O)c1nn(C)c2ccc(Nc3nccc(-n4cc(CN(C)C)cn4)n3)cc12 — 9.4-fold higher, 909 µM (≈ 369 µg/mL)

Experiment: Metabolic stability in human hepatocyte assessed as intrinsic clearance
Format: ADME, tissue-based
Settings: hepatocytes

Point of comparison: `Cc1nnc(-c2nc(C)n3ccc(Nc4nccc(-c5cc(CN(C)C)n(C)n5)n4)cc23)o1`, CLH 1.9 µL/min. Against it:
- CNC(=O)c1nn(C)c2ccc(Nc3nccc(-n4cc(CN(C)C)cn4)n3)cc12 — 11-fold higher, 21 µL/min

Experiment: Clearance in Han Wistar rat at 0.5 mg/kg, iv or 1 mg/kg, po
Format: ADME, organism-based
Settings: in vivo

Point of comparison: `CNC(=O)c1nn(C)c2ccc(Nc3nccc(-n4cc(CN(C)C)cn4)n3)cc12`, clearance 8 mL/min/kg. Against it:
- Cc1nnc(-c2nc(C)n3ccc(Nc4nccc(-c5cc(CN(C)C)n(C)n5)n4)cc23)o1 — 24-fold higher, 189 mL/min/kg

Experiment: Unbound clearance in Han Wistar rat at 0.5 mg/kg, iv or 1 mg/kg, po
Format: ADME, organism-based
Settings: in vivo

Point of comparison: `Cc1nnc(-c2nc(C)n3ccc(Nc4nccc(-c5cc(CN(C)C)n(C)n5)n4)cc23)o1`, CL free 787 mL/min/kg. Against it:
- CNC(=O)c1nn(C)c2ccc(Nc3nccc(-n4cc(CN(C)C)cn4)n3)cc12 — 3.1-fold lower, 250 mL/min/kg

Experiment: Volume of distribution at steady state in Han Wistar rat at 0.5 mg/kg, iv or 1 mg/kg, po
Format: ADME, organism-based
Settings: in vivo, read-out: Vdss

Point of comparison: `Cc1nnc(-c2nc(C)n3ccc(Nc4nccc(-c5cc(CN(C)C)n(C)n5)n4)cc23)o1`, Vd 11 L/kg. Against it:
- CNC(=O)c1nn(C)c2ccc(Nc3nccc(-n4cc(CN(C)C)cn4)n3)cc12 — 10-fold lower, 1.1 L/kg

Experiment: Oral bioavailability in Han Wistar rat at 1 mg/kg
Format: ADME, organism-based
Settings: in vivo

Point of comparison: `CNC(=O)c1nn(C)c2ccc(Nc3nccc(-n4cc(CN(C)C)cn4)n3)cc12`, bioavailability 60%. Against it:
- Cc1nnc(-c2nc(C)n3ccc(Nc4nccc(-c5cc(CN(C)C)n(C)n5)n4)cc23)o1 — lower, 5%

Experiment: Clearance in CD-1 mouse at 0.5 mg/kg, iv or 1 mg/kg, po
Format: ADME, organism-based
Settings: in vivo

`Cc1nnc(-c2nc(C)n3ccc(Nc4nccc(-c5cc(CN(C)C)n(C)n5)n4)cc23)o1` gave a clearance of 255 mL/min/kg.

Experiment: Clearance for unbound fraction in CD-1 mouse at 0.5 mg/kg, iv or 1 mg/kg, po
Format: ADME, organism-based
Settings: in vivo

Compound `Cc1nnc(-c2nc(C)n3ccc(Nc4nccc(-c5cc(CN(C)C)n(C)n5)n4)cc23)o1` has a CL free of 955 mL/min/kg.

Experiment: Volume of distribution at steady state in CD-1 mouse at 0.5 mg/kg, iv or 1 mg/kg, po
Format: ADME, organism-based
Settings: in vivo, read-out: Vdss

Work on `Cc1nnc(-c2nc(C)n3ccc(Nc4nccc(-c5cc(CN(C)C)n(C)n5)n4)cc23)o1` yielded a Vd of 8 L/kg.

Experiment: Oral bioavailability in CD-1 mouse at 1 mg/kg
Format: ADME, organism-based
Settings: in vivo

With `Cc1nnc(-c2nc(C)n3ccc(Nc4nccc(-c5cc(CN(C)C)n(C)n5)n4)cc23)o1` the bioavailability was 7%.

Experiment: Apparent permeability of the compound across apical to basolateral side in human Caco-2 cells at pH 6.5
Format: ADME, cell-based
Settings: Caco-2, pH 6.5

In the case of `Cc1nnc(-c2nc(C)n3ccc(Nc4nccc(-c5cc(CN(C)C)n(C)n5)n4)cc23)o1`, the Papp A→B is reported as 6.5 ×10⁻⁶ cm/s.

Experiment: Dissociation constant, pKa of the compound
Format: physicochemical
Settings: not given

Point of comparison: `CNC(=O)c1nc(C)n2ccc(Nc3nccc(-n4cc([C@@H]5C[C@H](O)CN5C)cn4)n3)cc12`, pKa 7.9. Against it:
- CNC(=O)c1nn(C)c2ccc(Nc3nccc(-n4cc(CN5CC(O)C5)c(C)n4)n3)cc12 — higher, 8.6
- Cc1nnc(-c2nc(C)n3ccc(Nc4nccc(-c5cc(CN(C)C)n(C)n5)n4)cc23)o1 — lower, 7.2
- CNC(=O)c1nn(C)c2ccc(Nc3nccc(-c4cc(CN(C)C)n(C)n4)n3)cc12 — lower, 7.3

Settings: mouse, hepatocytes

With `Cc1nnc(-c2nc(C)n3ccc(Nc4nccc(-c5cc(CN(C)C)n(C)n5)n4)cc23)o1` the CLH was 44 µL/min.
